Results on 29 compounds are retold here after patent publication US20100311714A1, “1H-IMIDAZO[4,5-c]QUINOLINONE COMPOUNDS” (priority 2009, published 2010).

T1 sequence (P42338 with tags, fused parts or gaps limits assumed): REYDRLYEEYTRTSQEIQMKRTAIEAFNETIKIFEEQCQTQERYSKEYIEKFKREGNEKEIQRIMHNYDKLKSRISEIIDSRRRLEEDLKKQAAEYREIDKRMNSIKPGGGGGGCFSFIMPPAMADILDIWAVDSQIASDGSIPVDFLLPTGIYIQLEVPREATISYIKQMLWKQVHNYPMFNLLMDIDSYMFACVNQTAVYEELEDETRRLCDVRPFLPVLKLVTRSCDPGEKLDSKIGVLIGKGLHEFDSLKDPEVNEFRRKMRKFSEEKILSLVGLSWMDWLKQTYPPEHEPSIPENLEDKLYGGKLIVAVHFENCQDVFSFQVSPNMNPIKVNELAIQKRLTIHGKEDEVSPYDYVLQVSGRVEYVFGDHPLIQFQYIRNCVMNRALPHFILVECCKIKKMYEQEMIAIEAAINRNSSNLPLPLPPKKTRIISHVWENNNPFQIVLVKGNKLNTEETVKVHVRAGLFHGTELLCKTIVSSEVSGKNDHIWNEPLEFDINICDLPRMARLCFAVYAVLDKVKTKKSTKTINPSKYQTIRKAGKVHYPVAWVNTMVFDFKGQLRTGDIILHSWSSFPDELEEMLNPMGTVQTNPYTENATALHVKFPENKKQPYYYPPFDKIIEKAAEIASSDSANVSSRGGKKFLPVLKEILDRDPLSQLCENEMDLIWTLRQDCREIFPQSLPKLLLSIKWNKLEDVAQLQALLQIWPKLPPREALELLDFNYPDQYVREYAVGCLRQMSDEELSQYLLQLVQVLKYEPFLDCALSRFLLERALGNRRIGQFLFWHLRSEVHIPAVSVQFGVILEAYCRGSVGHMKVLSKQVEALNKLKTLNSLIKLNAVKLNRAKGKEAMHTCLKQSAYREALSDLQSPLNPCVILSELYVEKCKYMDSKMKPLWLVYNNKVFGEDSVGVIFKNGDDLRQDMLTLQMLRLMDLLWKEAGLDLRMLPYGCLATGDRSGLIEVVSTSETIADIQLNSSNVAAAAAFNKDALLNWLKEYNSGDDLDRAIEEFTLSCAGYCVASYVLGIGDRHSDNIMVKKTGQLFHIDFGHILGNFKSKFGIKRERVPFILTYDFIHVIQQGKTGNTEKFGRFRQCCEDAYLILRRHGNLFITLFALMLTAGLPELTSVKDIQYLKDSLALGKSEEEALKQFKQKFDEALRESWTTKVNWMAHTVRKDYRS

The first assay addresses T1, PI3K beta (Homo sapiens, UniProt P42338).
T1 construct: for the full-length p110-b subunit are generated and fused by overlapping PCR; His tag (C); made in house; host or cells: baculovirus BV949; Tn5 (Trichoplusia ni) or TiniPro insect cells
Nature of the assay: PI3K beta kinase assay (Kinase-Glo luminescence). The class given is biochemical. As to conditions: read-out: EPK_PI3Kbeta/IC50. In outline:
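PI3Kβ construct BV949 (p85 iSH2–p110β full-length, C-His), 25 nM, reacted with 1 μM ATP and 10 μg/mL phosphatidylinositol in Tris pH 7.5, MgCl2, NaCl, CHAPS, DTT buffer, 60 min at room temperature. Remaining ATP by Kinase-Glo luminescence; IC50 from 4-parameter logistic fit of 8 concentrations.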
In the case of `CNc1cncc(-c2ccc3ncc4c(c3c2)n(-c2cccnc2C)c(=O)n4C)c1` [Example 2.26, 3-Methyl-8-(5-methylamino-pyridin-3-yl)-1-(2-methyl-pyridin-3-yl)-1,3-dihydro-imidazo[4,5-c]quinolin-2-one], the IC50 was 31 nM. Same read-out and setting: then `COc1cc(-c2ccc3ncc4c(c3c2)n(-c2cccnc2C)c(=O)n4C)cnc1C(OC)OC` [Example 2.27, 8-(6-Dimethoxymethyl-5-methoxy-pyridin-3-yl)-3-methyl-1-(2-methyl-pyridin-3-yl)-1,3-dihydro-imidazo[4,5-c]quinolin-2-one], with 1240 nM; and `CCOc1cc(-c2ccc3ncc4c(c3c2)n(-c2cccnc2C)c(=O)n4C)cnc1COC` [Example 2.28, 8-(5-Ethoxy-6-methoxymethyl-pyridin-3-yl)-3-methyl-1-(2-methyl-pyridin-3-yl)-1,3-dihydro-imidazo[4,5-c]quinolin-2-one], with 563 nM.

Take `Cc1ncccc1-n1c(=O)n(C)c2cnc3ccc(-c4cncc(N5CCC5)c4)cc3c21` [Example 2.29, 8-(5-Azetidin-1-yl-pyridin-3-yl)-3-methyl-1-(2-methyl-pyridin-3-yl)-1,3-dihydro-imidazo[4,5-c]quinolin-2-one]: the IC50 was determined as 782 nM. The same measure, in the same setting: in the case of `CCNc1cc(-c2ccc3ncc4c(c3c2)n(-c2cccnc2C)c(=O)n4C)cnc1CO` [Example 2.31, 8-(5-Ethylamino-6-hydroxymethyl-pyridin-3-yl)-3-methyl-1-(2-methyl-pyridin-3-yl)-1,3-dihydro-imidazo[4,5-c]quinolin-2-one] it was 67 nM; in that of `CNc1cc(-c2ccc3ncc4c(c3c2)n(-c2cccnc2C)c(=O)n4C)cnc1C` [Example 2.32, 3-Methyl-8-(6-methyl-5-methylamino-pyridin-3-yl)-1-(2-methyl-pyridin-3-yl)-1,3-dihydro-imidazo[4,5-c]quinolin-2-one], 61 nM; in that of `CCOc1cc(-c2ccc3ncc4c(c3c2)n(-c2ccc(F)nc2C)c(=O)n4C)cnc1COC` [Example 7.5, 8-(5-Ethoxy-6-methoxymethyl-pyridin-3-yl)-1-(6-fluoro-2-methyl-pyridin-3-yl)-3-methyl-1,3-dihydro-imidazo[4,5-c]quinolin-2-one], 152 nM.

For `Cc1nc(F)ccc1-n1c(=O)n(C)c2cnc3ccc(-c4cncc(C(C)(C)O)c4)cc3c21` [Example 7.8, 1-(6-Fluoro-2-methyl-pyridin-3-yl)-8-[5-(1-hydroxy-1-methyl-ethyl)-pyridin-3-yl]-3-methyl-1,3-dihydro-imidazo[4,5-c]quinolin-2-one], the IC50 turned out to be 45 nM. On the same count and under the same terms, then `Cc1nc(N2CCN(C)C(=O)C2)ccc1-n1c(=O)n(C)c2cnc3ccc(-c4cnc(N)c(C(F)(F)F)c4)cc3c21` [Example 21.1, 8-(6-Amino-5-trifluoromethyl-pyridin-3-yl)-3-methyl-1-[2-methyl-6-(4-methyl-3-oxo-piperazin-1-yl)-pyridin-3-yl]-1,3-dihydro-imidazo[4,5-c]quinolin-2-one], with 9 nM. For the compound `CCOc1cc(-c2ccc3ncc4c(c3c2)n(-c2ccc(OCCOC)nc2C)c(=O)n4C)cnc1COC` [Example 22.1, 8-(5-Ethoxy-6-methoxymethyl-pyridin-3-yl)-1-[6-(2-methoxy-ethoxy)-2-methyl-pyridin-3-yl]-3-methyl-1,3-dihydro-imidazo[4,5-c]quinolin-2-one], the IC50 was 429 nM. On to `Cc1nc(N2CCC2)ccc1-n1c(=O)n(C)c2cnc3ccc(-c4cncc(N5CCC5)c4)cc3c21` [Example 23.1, 1-(6-Azetidin-1-yl-2-methyl-pyridin-3-yl)-8-(5-azetidin-1-yl-pyridin-3-yl)-3-methyl-1,3-dihydro-imidazo[4,5-c]quinolin-2-one], for which the IC50 was 1160 nM. The same measure, in the same setting: then `COCc1ncc(-c2ccc3ncc4c(c3c2)n(-c2ccc(N3CCC3)nc2C)c(=O)n4C)cc1OC(C)C` [Example 23.2, 1-(6-Azetidin-1-yl-2-methyl-pyridin-3-yl)-8-(5-isopropoxy-6-methoxymethyl-pyridin-3-yl)-3-methyl-1,3-dihydro-imidazo[4,5-c]quinolin-2-one], with 193 nM. Still for that read-out and setting: in the case of `Cc1nc(N2CCC2)ccc1-n1c(=O)n(C)c2cnc3ccc(-c4cncc(C(C)(C)O)c4)cc3c21` [Example 23.3, 1-(6-Azetidin-1-yl-2-methyl-pyridin-3-yl)-8-[5-(1-hydroxy-1-methyl-ethyl)-pyridin-3-yl]-3-methyl-1,3-dihydro-imidazo[4,5-c]quinolin-2-one] it was 19 nM; in that of `CNc1ccc(-c2ccc3ncc4c(c3c2)n(-c2ccc(N3CCC3)nc2C)c(=O)n4C)cn1` [Example 23.4, 1-(6-Azetidin-1-yl-2-methyl-pyridin-3-yl)-3-methyl-8-(6-methylamino-pyridin-3-yl)-1,3-dihydro-imidazo[4,5-c]quinolin-2-one], 441 nM. Same read-out and setting: in the case of `CCOc1cc(-c2ccc3ncc4c(c3c2)n(-c2ccc(N3CCC3)nc2C)c(=O)n4C)cnc1COC` [Example 23.5, 1-(6-Azetidin-1-yl-2-methyl-pyridin-3-yl)-8-(5-ethoxy-6-methoxymethyl-pyridin-3-yl)-3-methyl-1,3-dihydro-imidazo[4,5-c]quinolin-2-one] it was 208 nM; in that of `COCc1ncc(-c2ccc3ncc4c(c3c2)n(-c2ccc(N3CCC3)nc2C)c(=O)n4C)cc1OC` [Example 23.6, 1-(6-Azetidin-1-yl-2-methyl-pyridin-3-yl)-8-(5-methoxy-6-methoxymethyl-pyridin-3-yl)-3-methyl-1,3-dihydro-imidazo[4,5-c]quinolin-2-one], 353 nM. `CCNc1cc(-c2ccc3ncc4c(c3c2)n(-c2ccc(N3CCC3)nc2C)c(=O)n4C)cnc1CO` [Example 23.8, 1-(6-Azetidin-1-yl-2-methyl-pyridin-3-yl)-8-(5-ethylamino-6-hydroxymethyl-pyridin-3-yl)-3-methyl-1,3-dihydro-imidazo[4,5-c]quinolin-2-one]: the IC50 is 36 nM.

For `Cc1nc(N2CCC2)ccc1-n1c(=O)n(C)c2cnc3ccc(-c4cncc(OC(C)C)c4)cc3c21` [Example 23.9, 1-(6-Azetidin-1-yl-2-methyl-pyridin-3-yl)-8-(5-isopropoxy-pyridin-3-yl)-3-methyl-1,3-dihydro-imidazo[4,5-c]quinolin-2-one], the IC50 was determined as 171 nM.

The assay is the same for the next values; noted with them: read-out: PI3Kbeta/IC50.
Regarding `Cc1cccnc1-n1c(=O)n(C)c2cnc3ccc(-c4cnc(N)c(C(F)(F)F)c4)cc3c21` [Example 3.12, 8-(6-Amino-5-trifluoromethyl-pyridin-3-yl)-3-methyl-1-(3-methyl-pyridin-2-yl)-1,3-dihydro-imidazo[4,5-c]quinolin-2-one], the IC50 is 109 nM.

Take `COc1ccc(-c2ccc3ncc4c(c3c2)n(-c2cnccc2C)c(=O)n4C)cn1` [Example 4.3, 8-(6-Methoxy-pyridin-3-yl)-3-methyl-1-(4-methyl-pyridin-3-yl)-1,3-dihydro-imidazo[4,5-c]quinolin-2-one]: the IC50 came out at 601 nM. The same measure, in the same setting: in the case of `Cn1c(=O)n(-c2cccnc2)c2c3cc(-c4ccc(CO)nc4)ccc3ncc21` [Example 5.1, 8-(6-Hydroxymethyl-pyridin-3-yl)-3-methyl-1-pyridin-3-yl-1,3-dihydro-imidazo[4,5-c]quinolin-2-one] it was 801 nM. For `CCOc1ccc(-c2ccc3ncc4c(c3c2)n(-c2cccnc2F)c(=O)n4C)cn1` [Example 6.1, 8-(6-Ethoxy-pyridin-3-yl)-1-(2-fluoro-pyridin-3-yl)-3-methyl-1,3-dihydro-imidazo[4,5-c]quinolin-2-one], the IC50 stood at 223 nM. For the compound `Cn1c(=O)n(-c2cccnc2F)c2c3cc(-c4cnc(N)c(C(F)(F)F)c4)ccc3ncc21` [Example 6.2, 8-(6-Amino-5-trifluoromethyl-pyridin-3-yl)-1-(2-fluoro-pyridin-3-yl)-3-methyl-1,3-dihydro-imidazo[4,5-c]quinolin-2-one], the IC50 was determined as 7 nM. Turning to `Cc1nc(F)ccc1-n1c(=O)n(C)c2cnc3ccc(-c4cnc(N)c(C(F)(F)F)c4)cc3c21` [Example 7.1, 8-(6-Amino-5-trifluoromethyl-pyridin-3-yl)-1-(6-fluoro-2-methyl-pyridin-3-yl)-3-methyl-1,3-dihydro-imidazo[4,5-c]quinolin-2-one], the IC50 turned out to be 7 nM. Still for that read-out and setting: then `Cc1nc(F)ccc1-n1c(=O)n(C)c2cnc3ccc(-c4cnc5c(ccn5C)c4)cc3c21` [Example 7.2, 1-(6-Fluoro-2-methyl-pyridin-3-yl)-3-methyl-8-(1-methyl-1H-pyrrolo[2,3-b]pyridin-5-yl)-1,3-dihydro-imidazo[4,5-c]quinolin-2-one], with 309 nM; and `CCOc1ccc(-c2ccc3ncc4c(c3c2)n(-c2ccc(F)nc2C)c(=O)n4C)cn1` [Example 7.3, 8-(6-Ethoxy-pyridin-3-yl)-1-(6-fluoro-2-methyl-pyridin-3-yl)-3-methyl-1,3-dihydro-imidazo[4,5-c]quinolin-2-one], with 452 nM; and `CNc1ccc(-c2ccc3ncc4c(c3c2)n(-c2ccc(F)nc2C)c(=O)n4C)cn1` [Example 7.4, 1-(6-Fluoro-2-methyl-pyridin-3-yl)-3-methyl-8-(6-methylamino-pyridin-3-yl)-1,3-dihydro-imidazo[4,5-c]quinolin-2-one], with 263 nM.

`CCOc1ccc(-c2ccc3ncc4c(c3c2)n(-c2ccc(N3CCNCC3)nc2OC)c(=O)n4C)cn1` [Example 9.1, 8-(6-Ethoxy-pyridin-3-yl)-1-(2-methoxy-6-piperazin-1-yl-pyridin-3-yl)-3-methyl-1,3-dihydro-imidazo[4,5-c]quinolin-2-one]: the IC50 was 267 nM. On the same count and under the same terms, in the case of `COc1nc(N2CCNCC2)ccc1-n1c(=O)n(C)c2cnc3ccc(-c4cnc(N)c(C(F)(F)F)c4)cc3c21` [Example 9.2, 8-(6-Amino-5-trifluoromethyl-pyridin-3-yl)-1-(2-methoxy-6-piperazin-1-yl-pyridin-3-yl)-3-methyl-1,3-dihydro-imidazo[4,5-c]quinolin-2-one] it was 36 nM.
